Measurements taken from patent publication US10093697B2, “IBAT inhibitors for the treatment of liver diseases” (Albireo AB, priority 2010, dated 2018).

biological target: Ileal Bile Acid Transporter Human (Homo sapiens (Human), UniProt Q12908); assay: ISBT Hu HEK Uptake SPA: glycocholic acid uptake, radiometric SPA; type: cell-based; settings: human IBAT in HEK cells
Description: ISBT Hu HEK Uptake SPA 13203 IBAT HUM Ileal Bile Acid Transporter Human HEK Glycocholic acid Uptake Radiometric—SPA Inhibitor IC50 Mean IC50 (nM) was determined for the compounds of examples 1-14

Chain of Ileal Bile Acid Transporter Human (Q12908 whole entry): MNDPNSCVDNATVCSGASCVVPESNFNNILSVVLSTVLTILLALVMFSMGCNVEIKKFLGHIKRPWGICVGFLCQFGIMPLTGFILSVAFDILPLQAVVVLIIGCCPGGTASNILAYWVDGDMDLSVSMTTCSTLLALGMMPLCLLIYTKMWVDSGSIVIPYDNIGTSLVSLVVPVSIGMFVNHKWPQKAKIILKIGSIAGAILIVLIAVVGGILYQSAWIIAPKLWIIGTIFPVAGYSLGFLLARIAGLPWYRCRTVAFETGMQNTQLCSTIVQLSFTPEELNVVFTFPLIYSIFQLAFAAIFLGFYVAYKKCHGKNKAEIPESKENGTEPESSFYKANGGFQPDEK

`CCCCC1(CCCC)CN(c2ccccc2)c2cc(SC)c(OCC(=O)N[C@@H](C(=O)N[C@H](C(=O)O)C(C)C)c3ccc(O)cc3)cc2S(=O)(=O)N1` [Example 13, 1,1-Dioxo-3,3-dibutyl-5-phenyl-7-methylthio-8-(N—{(R)-α-[N—((S)-1-carboxy-2-methylpropyl)carbamoyl]-4-hydroxybenzyl}carbamoylmethoxy)-2,3,4,5-tetra hydro-1,2,5-benzothiadiazepine] was tested. Which IC50 did it give?
The IC50 was 0.13 nM.

biological target: IBAT (Mus musculus (Mouse), UniProt P70172); assay: 75SeHCAT intestinal absorption in ApoE knock out mice (IBAT inhibitory effect); type: in vivo; settings: po, oral dose 0.156 μmol/kg, 75SeHCAT absorption over 24 hours
Sequence (P70172 whole entry): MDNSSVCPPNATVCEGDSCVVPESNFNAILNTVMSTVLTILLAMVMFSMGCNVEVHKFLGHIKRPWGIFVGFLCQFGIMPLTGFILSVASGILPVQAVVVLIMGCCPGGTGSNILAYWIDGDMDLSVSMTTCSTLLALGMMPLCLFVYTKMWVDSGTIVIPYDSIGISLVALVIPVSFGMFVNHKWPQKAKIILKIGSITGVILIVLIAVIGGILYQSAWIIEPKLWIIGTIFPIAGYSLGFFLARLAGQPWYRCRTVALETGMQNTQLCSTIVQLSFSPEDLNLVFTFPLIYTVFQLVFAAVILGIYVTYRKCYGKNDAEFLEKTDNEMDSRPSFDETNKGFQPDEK
Description: Species Mouse; Strain ApoE knock out; Sub strain C57BL/6; Sex Female; Total No. of animals 70; Body weight range 20 g to 22 g; Supplier Möllegaard's Breeding (Skensved, Denmark); Identification method ID cards (bar code).
Acclimatisation At least one week at the Section of Laboratory; Animal Resource at AstraZeneca; Housing conditions Kept five by five in cages (Makrolon III, 7 dm2) in a room with regulated temperature (22° C.), relative humidity (40% to 60%) and a 12/12 hours light/dark cycle. Diet Free access to R3 pellets (Lactamin, Vadstena, Sweden) during the housing and experimental period. Water, free access to tap water during the housing and experimental period.
The animals were orally administered vehicle (n=3) or the compound of Example 14 (0.156 (n=3), 0.625 (n=3) or 2.5 μmol/kg (n=3)) at 13:00 o'clock on the experimental day. Thirty minutes later, a trace amount of ^75SeHCAT (^75Se-homo-tauro-cholic acid) ([…] per 0.1 mL per mouse) was orally given to each mouse. Twenty-four hours after ^75SeHCAT administration, the animals were killed by CO2 inhalation. At sacrifice, the gall bladder and the whole intestine were removed, and the faeces during the 24-hour period after ^75SeHCAT administration was collected for each mouse. The gamma radioactivities of ^75SeHCAT in the faeces and in the gall bladder-intestine were separately counted by 1282 CompuGamma CS Gamma counter (Wallac oy, Turku, Finland). The stability as well as the quantity of the ^75SeHCAT administered to each mouse, were controlled with an additional ^75SeHCAT aliquot following the same experimental process as other tested samples in the study.
The sum of the gamma counts from both the faeces and the gall bladder-intestine was considered as the total recovered ^75SeHCAT, which was averaged around 85% of the total ^75SeHCAT administered to each mouse. Of the recovered radioactivity of ^75SeHCAT, the percentage of the ^75SeHCAT detected in the faeces was considered as the faecal excretion while that in the gall bladder-intestine as body retention. Inhibitory effect of the compound of Example 14 on ^75SeHCAT intestinal absorption was calculated following the ^75SeHCAT body retention and the faecal excretion, and the ED50 of the compound was estimated following the dose-effect curve.
The mean IBAT inhibitory effect (%) at a dose (μmol/kg): 0.156 was determined for the compounds of examples 1-14 and is reported in Table 1.

Which inhibition at 0.156 µmol/kg does the source give for `CCCCC1(CCCC)CN(c2ccccc2)c2cc(SC)c(OCC(=O)N[C@@H](C(=O)NCC(=O)O)c3ccccc3)cc2S(=O)(=O)N1` [Example 1, 1,1-Dioxo-3,3-dibutyl-5-phenyl-7-methylthio-8-(N—{(R)-α-[N-(carboxymethyl)carbamoyl]benzyl}carbamoylmethoxy)-2,3,4,5-tetrahydro-1,2,5-benzothiadiazepine] here?
The inhibition at 0.156 µmol/kg was 43%.

For `CCCCC1(CCCC)CN(c2ccccc2)c2cc(SC)c(OCC(=O)N[C@@H](C(=O)N[C@@H](CC)C(=O)O)c3ccccc3)cc2S(=O)(=O)N1` [Example 3, 1,1-Dioxo-3,3-dibutyl-5-phenyl-7-methylthio-8-(N—{(R)-α-[N—((S)-1-carboxypropyl)carbamoyl]benzyl}carbamoylmethoxy)-2,3,4,5-tetrahydro-1,2,5-benzothiadiazepine], which inhibition at 0.156 µmol/kg is on record?
Its inhibition at 0.156 µmol/kg is 63%.

Which inhibition at 0.156 µmol/kg does the source give for `CCCCC1(CCCC)CN(c2ccccc2)c2cc(SC)c(OCC(=O)N[C@@H](C(=O)N[C@@H](CSC)C(=O)O)c3ccccc3)cc2S(=O)(=O)N1` [Example 4, 1,1-Dioxo-3,3-dibutyl-5-phenyl-7-methylthio-8-(N—{(R)-α-[N—((R)-1-carboxy-2-methylthioethyl)carbamoyl]benzyl}carbamoylmethoxy)-2,3,4,5-tetrahydro-1,2,5-benzothiadiazepine] here?
Its inhibition at 0.156 µmol/kg is 63%.

`CCCCC1(CCCC)CN(c2ccccc2)c2cc(SC)c(OCC(=O)N[C@@H](C(=O)N[C@@H](CC)C(=O)O)c3ccc(O)cc3)cc2S(=O)(=O)N1` [Example 5, 1,1-Dioxo-3,3-dibutyl-5-phenyl-7-methylthio-8-(N—{(R)-α-[N—((S)-1-carboxypropyl)carbamoyl]-4-hydroxybenzyl}carbamoylmethoxy)-2,3,4,5-tetrahydro-1,2,5-benzothiadiazepine] was tested. Which inhibition at 0.156 µmol/kg did it give?
Its inhibition at 0.156 µmol/kg is 74%.

Which inhibition at 0.156 µmol/kg does the source give for `CCCCC1(CCCC)CN(c2ccccc2)c2cc(SC)c(OCC(=O)N[C@@H](C(=O)N[C@@H](CSC)C(=O)O)c3ccc(O)cc3)cc2S(=O)(=O)N1` [Example 6, 1,1-Dioxo-3,3-dibutyl-5-phenyl-7-methylthio-8-(N—{(R)-α-[N—((R)-1-carboxy-2-methylthio-ethyl)carbamoyl]-4-hydroxybenzyl}carbamoylmethoxy)-2,3,4,5-tetra hydro-1,2,5-benzothiadiazepine] here?
The inhibition at 0.156 µmol/kg was 59%.

With `CCCCC1(CCCC)CN(c2ccccc2)c2cc(SC)c(OCC(=O)N[C@@H](C(=O)N[C@H](C(=O)O)C(C)C)c3ccccc3)cc2S(=O)(=O)N1` [Example 7, 1,1-Dioxo-3,3-dibutyl-5-phenyl-7-methylthio-8-(N—{(R)-α-[N—((S)-1-carboxy-2-methylpropyl)carbamoyl]benzyl}carbamoylmethoxy)-2,3,4,5-tetrahydro-1,2,5-benzothiadiazepine] as the compound, how does the inhibition at 0.156 µmol/kg read?
The inhibition at 0.156 µmol/kg was 66%.

For `CCCCC1(CCCC)CN(c2ccccc2)c2cc(SC)c(OCC(=O)N[C@@H](C(=O)N[C@H](C(=O)O)[C@@H](C)O)c3ccc(O)cc3)cc2S(=O)(=O)N1` [Example 8, 1,1-Dioxo-3,3-dibutyl-5-phenyl-7-methylthio-8-(N—{(R)-α-[N—((S)-1-carboxy-2-(R)-hydroxypropyl)carbamoyl]-4-hydroxybenzyl}carbamoylmethoxy)-2,3,4,5-tetrahydro-1,2,5-benzothiadiazepine], which inhibition at 0.156 µmol/kg is on record?
The inhibition at 0.156 µmol/kg was 46%.

For `CCCCC1(CCCC)CN(c2ccccc2)c2cc(SC)c(OCC(=O)N[C@@H](C(=O)N[C@@H](CCC)C(=O)O)c3ccc(O)cc3)cc2S(=O)(=O)N1` [Example 9, 1,1-Dioxo-3,3-dibutyl-5-phenyl-7-methylthio-8-(N—{(R)-α-[N—((S)-1-carboxybutyl)carbamoyl]-4-hydroxybenzyl}carbamoylmethoxy)-2,3,4,5-tetrahydro-1,2,5-benzothiadiazepine], which inhibition at 0.156 µmol/kg is on record?
The inhibition at 0.156 µmol/kg was 67%.

Which inhibition at 0.156 µmol/kg does the source give for `CCCCC1(CCCC)CN(c2ccccc2)c2cc(SC)c(OCC(=O)N[C@@H](C(=O)N[C@@H](C)C(=O)O)c3ccccc3)cc2S(=O)(=O)N1` [Example 10, 1,1-Dioxo-3,3-dibutyl-5-phenyl-7-methylthio-8-(N—{(R)-α-[N—((S)-1-carboxyethyl)carbamoyl]benzyl}carbamoylmethoxy)-2,3,4,5-tetrahydro-1,2,5-benzothiadiazepine] here?
The inhibition at 0.156 µmol/kg was 68%.

How did the inhibition at 0.156 µmol/kg turn out when `CCCCC1(CCCC)CN(c2ccccc2)c2cc(SC)c(OCC(=O)N[C@@H](C(=O)N[C@@H](C)C(=O)O)c3ccc(O)cc3)cc2S(=O)(=O)N1` [Example 12, 1,1-Dioxo-3,3-dibutyl-5-phenyl-7-methylthio-8-(N—{(R)-α-[N—((S)-1-carboxyethyl)carbamoyl]-4-hydroxybenzyl}carbamoylmethoxy)-2,3,4,5-tetrahydro-1,2,5-benzothiadiazepine] was run?
The inhibition at 0.156 µmol/kg was 63%.

How did the inhibition at 0.156 µmol/kg turn out when `CCCCC1(CCCC)CN(c2ccccc2)c2cc(SC)c(OCC(=O)N[C@@H](C(=O)N[C@H](C(=O)O)C(C)C)c3ccc(O)cc3)cc2S(=O)(=O)N1` [Example 13, 1,1-Dioxo-3,3-dibutyl-5-phenyl-7-methylthio-8-(N—{(R)-α-[N—((S)-1-carboxy-2-methylpropyl)carbamoyl]-4-hydroxybenzyl}carbamoylmethoxy)-2,3,4,5-tetra hydro-1,2,5-benzothiadiazepine] was run?
Its inhibition at 0.156 µmol/kg is 68%.

How did the inhibition at 0.156 µmol/kg turn out when `CCCCC1(CCCC)CN(c2ccccc2)c2cc(SC)c(OCC(=O)N[C@@H](C(=O)NCC(=O)O)c3ccccc3)cc2S(=O)(=O)C1` [Example 14, 1,1-Dioxo-3,3-dibutyl-5-phenyl-7-methylthio-8-(N—{(R)-1′-phenyl-1′-[N′-(carboxymethyl)carbamoyl]methyl}carbamoylmethoxy)-2,3,4,5-tetrahydro-1,5-benzothiazepine] was run?
Its inhibition at 0.156 µmol/kg is 28%.

test system: Mdr2−/− mice; assay: In vivo animal model of primary sclerosing cholangitis (Mdr2-/- mice); settings: daily oral gavage for 2-4 weeks, vs vehicle
Source text: A genetic mice with targeted disruption of the Multidrug resistant Mdr2 (Abcb4) gene encoding a canalicular phospholipid flippase (Mdr2−/−mice) spontaneously develop sclerosing cholangitis with macroscopic and microscopic features of human Primary sclerosing cholangitis. Bile duct injury in these mice is linked to defective biliary phospholipid secretion resulting in an increased concentration of free non-micellar bile acids which subsequently cause bile duct epithelial cell (cholangiocyte) injury, pericholangitis, periductal fibrosis with ductular proliferation and finally sclerosing cholangitis. […] In analogy to the Mdr2−/− mouse model of sclerosing cholangitis, Multidrug resistant protein MDR3/ABCB4 (the human orthologue of rodent Mdr2/Abcb4) defects play a role in the pathogenesis of various cholangiopathies in humans. MDR3 variants play a role as a modifier gene in the pathogenesis of various cholangiopathies such as PSC, Primary Biliary cirrhosis (PBC) and adulthood idiopathic ductopenia/biliary fibrosis.
Mdr2−/− mice were given daily oral doses of the compound of Example 14 by gavage for 2-4 weeks and controls were dosed the vehicle in the same way. Serum liver tests, liver histology and fibrosis were investigated. The compound of Example 14 improves liver tests, liver histology and fibrosis.

Which fibrosis does the source give for `CCCCC1(CCCC)CN(c2ccccc2)c2cc(SC)c(OCC(=O)N[C@@H](C(=O)NCC(=O)O)c3ccccc3)cc2S(=O)(=O)C1` [Example 14, 1,1-Dioxo-3,3-dibutyl-5-phenyl-7-methylthio-8-(N—{(R)-1′-phenyl-1′-[N′-(carboxymethyl)carbamoyl]methyl}carbamoylmethoxy)-2,3,4,5-tetrahydro-1,5-benzothiazepine] here?
The fibrosis was “improves”.

And the liver histology?
The liver histology was “improves”.

And the “liver tests (serum)” value?
Its value is “improves”.
